In ChEMBL document CHEMBL3872247, “Discovery of dual positive allosteric modulators (PAMs) of the metabotropic glutamate 2 receptor and CysLT1 antagonists for treating migraine headache” (Bioorg Med Chem Lett, 2017):

Legend:
[1] = biological target: T1, Metabotropic glutamate receptor 2 (Homo sapiens, UniProt Q14416); assay: Positive allosteric modulation of recombinant human mGlu2 receptor expressed in hamster AV12 cells expressing EAAT1 assessed as potentiation of glutamate-induced intracellular calcium level measured after 24 to 48 hrs by FLIPR assay relative to glutamate; format: functional, cell-based
Target sequence in this assay (Q14416 19-872 limits assumed): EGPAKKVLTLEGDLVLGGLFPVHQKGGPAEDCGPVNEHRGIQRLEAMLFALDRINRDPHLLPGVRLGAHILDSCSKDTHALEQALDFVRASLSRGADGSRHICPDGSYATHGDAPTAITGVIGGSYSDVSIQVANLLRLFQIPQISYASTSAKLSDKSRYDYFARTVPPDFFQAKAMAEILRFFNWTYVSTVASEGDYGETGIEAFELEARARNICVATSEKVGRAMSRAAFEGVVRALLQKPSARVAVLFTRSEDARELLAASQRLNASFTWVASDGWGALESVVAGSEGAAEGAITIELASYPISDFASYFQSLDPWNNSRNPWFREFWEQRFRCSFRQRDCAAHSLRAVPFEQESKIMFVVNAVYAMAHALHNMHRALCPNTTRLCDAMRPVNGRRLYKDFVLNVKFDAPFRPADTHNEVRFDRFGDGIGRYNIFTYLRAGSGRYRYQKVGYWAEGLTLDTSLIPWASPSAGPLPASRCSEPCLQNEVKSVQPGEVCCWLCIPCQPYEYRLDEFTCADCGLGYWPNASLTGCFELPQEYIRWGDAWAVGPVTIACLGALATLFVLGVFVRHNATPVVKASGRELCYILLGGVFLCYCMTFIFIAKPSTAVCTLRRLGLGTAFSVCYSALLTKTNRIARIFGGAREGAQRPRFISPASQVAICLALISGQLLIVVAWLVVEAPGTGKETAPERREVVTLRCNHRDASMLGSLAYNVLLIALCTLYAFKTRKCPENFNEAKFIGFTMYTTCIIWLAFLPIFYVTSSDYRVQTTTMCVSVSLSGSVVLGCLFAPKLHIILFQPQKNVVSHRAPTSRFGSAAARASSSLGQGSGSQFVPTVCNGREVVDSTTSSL

[2] = biological target: T1, Metabotropic glutamate receptor 2; assay: Positive allosteric modulation of recombinant human mGlu2 receptor expressed in hamster AV12 cells expressing EAAT1 assessed as potentiation of glutamate-induced intracellular calcium level measured after 24 to 48 hrs by FLIPR assay; format: functional, cell-based
Target sequence in this assay (Q14416 whole entry): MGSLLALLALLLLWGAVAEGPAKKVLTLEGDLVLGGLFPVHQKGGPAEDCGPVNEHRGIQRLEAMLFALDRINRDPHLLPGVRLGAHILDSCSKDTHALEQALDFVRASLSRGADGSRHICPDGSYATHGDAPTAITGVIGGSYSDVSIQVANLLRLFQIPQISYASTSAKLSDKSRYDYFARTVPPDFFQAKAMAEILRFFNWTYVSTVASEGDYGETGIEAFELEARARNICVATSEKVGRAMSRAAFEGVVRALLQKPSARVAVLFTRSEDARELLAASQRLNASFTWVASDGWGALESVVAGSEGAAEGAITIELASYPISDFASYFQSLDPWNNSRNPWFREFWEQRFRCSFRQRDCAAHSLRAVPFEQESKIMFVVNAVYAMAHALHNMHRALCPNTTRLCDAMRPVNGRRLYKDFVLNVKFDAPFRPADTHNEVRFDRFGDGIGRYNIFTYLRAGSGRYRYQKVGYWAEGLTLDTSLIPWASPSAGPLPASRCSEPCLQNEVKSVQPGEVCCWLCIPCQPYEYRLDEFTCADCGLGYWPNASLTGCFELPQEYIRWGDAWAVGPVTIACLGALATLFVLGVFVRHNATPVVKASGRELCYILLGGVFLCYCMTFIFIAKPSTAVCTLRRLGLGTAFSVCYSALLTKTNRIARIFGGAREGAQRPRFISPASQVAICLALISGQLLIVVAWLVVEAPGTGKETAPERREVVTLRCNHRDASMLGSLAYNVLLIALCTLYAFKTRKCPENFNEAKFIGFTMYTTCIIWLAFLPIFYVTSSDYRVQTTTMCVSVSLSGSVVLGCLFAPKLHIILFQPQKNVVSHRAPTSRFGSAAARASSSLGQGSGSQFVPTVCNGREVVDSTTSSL

[3] = biological target: T2, Cysteinyl leukotriene receptor 1 (Homo sapiens, UniProt Q9Y271); assay: Antagonist activity at human CysLT1 receptor expressed in Syrian hamster AV12-664 cells assessed as decrease in LTD4-induced intracellular calcium level pretreated followed by LTD4 addition by fluo-3 dye based FLIPR assay; format: functional, cell-based
T2 sequence (Q9Y271 whole entry): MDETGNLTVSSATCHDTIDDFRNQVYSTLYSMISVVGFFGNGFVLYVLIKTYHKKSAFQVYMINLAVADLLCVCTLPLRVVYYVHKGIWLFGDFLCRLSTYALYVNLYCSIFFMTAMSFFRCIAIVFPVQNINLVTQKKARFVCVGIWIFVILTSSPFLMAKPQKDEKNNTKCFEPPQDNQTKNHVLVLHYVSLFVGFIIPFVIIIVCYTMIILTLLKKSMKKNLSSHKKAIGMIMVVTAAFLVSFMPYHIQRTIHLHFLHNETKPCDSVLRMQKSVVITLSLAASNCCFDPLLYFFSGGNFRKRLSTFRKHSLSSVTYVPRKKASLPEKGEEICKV

Rattus norvegicus = assay: Decrease in plasma protein extravasation in fasted Harlan Sprague-Dawley rat model of migraine compound administered via oral gavage 1 hr prior to electrical stimulation of trigeminal ganglion measured after 15 mins by FITC-BSA based fluorescence assay; format: functional
[4] = Cmax in rat at 1 mg/kg, po; format: ADME, organism-based; design: dose 1 mg/kg, route oral; conditions: in vivo
[5] = Tmax in rat at 1 mg/kg, po; format: ADME, organism-based; conditions: in vivo
[6] = Ratio of Cmax in rat to EC50 for human CysLT1 expressed in Syrian hamster AV12-664 cells
[7] = Ratio of Cmax in rat to EC50 for human mGlu2 receptor expressed in hamster AV12 cells expressing EAAT1
[8] = Oral bioavailability in rat at 1 mg/kg; format: ADME, organism-based; conditions: in vivo

Emax [1] [%]	EC50 [2] [nM]	IC50 [3] [nM]	Cmax [4] [ng/mL]	Tmax [5] [min]	bioavailability [8] [%]	Structure (SMILES)	ID100 (Rattus norvegicus) [mg/kg]	Ratio [6]	Ratio [7]	Activity (Rattus norvegicus)
94	682	346	–	–	–	CCCc1c(OCc2ccc(Oc3ccc(-c4nn[nH]n4)cn3)cc2)ccc(C(C)=O)c1O	–	–	–	–
85	17.9	144	–	–	–	CC(=O)c1ccc(OCc2cccc(Oc3ccc(-c4nn[nH]n4)cn3)c2)c(C(F)(F)F)c1O	–	–	–	–
80	319	203	–	–	–	CCCc1c(OCc2cccc(Oc3ccc(-c4nn[nH]n4)cn3)c2)ccc(C(C)=O)c1O	–	–	–	–
90	39.3	475	–	–	–	CC(=O)c1ccc(OCc2cccc(Oc3ccc(-c4nn[nH]n4)cn3)c2)c(Cl)c1O	–	–	–	–
81	6 to 6.4	112	24.1	24	38	CC(=O)c1ccc(OCc2cccc(Oc3cc(-c4nn[nH]n4)ccn3)c2)c(C(F)(F)F)c1O	0.01	0.46	8.52	Dose-dependent effect
90 to 96	110	62.4	–	–	–	CCCc1c(OCc2cccc(Oc3cc(-c4nn[nH]n4)ccn3)c2)ccc(C(C)=O)c1O	–	–	–	–
91	1080	1500	–	–	–	CC(=O)c1ccc(OCc2cccc(Oc3ccc(-c4nn[nH]n4)cn3)c2)c(F)c1O	–	–	–	–
101	87.4	342	–	–	–	CC(=O)c1ccc(OCc2cccc(Oc3cc(-c4nn[nH]n4)ccn3)c2)c(Cl)c1O	–	–	–	–
74	562	484	–	–	–	CCCc1c(OCc2ccc(Oc3cccc(-c4nn[nH]n4)c3)nc2)ccc(C(C)=O)c1O	–	–	–	–

Continued, molecule first:

Structure (SMILES)	Emax [1] [%]	EC50 [2] [nM]	IC50 [3] [nM]	Cmax [4] [ng/mL]	Tmax [5] [min]	bioavailability [8] [%]	ID100 (Rattus norvegicus) [mg/kg]	Ratio [6]	Ratio [7]	Activity (Rattus norvegicus)
CCCc1c(OCc2cccc(Oc3cc(C(=O)O)ccn3)c2)ccc(C(C)=O)c1O	91	404	73.6	–	–	–	–	–	–	–
CNS(=O)(=O)Cc1ccc2[nH]cc(CCN(C)C)c2c1 [SUMATRIPTAN]	–	–	–	–	–	–	1	–	–	–
CCCc1c(OCc2ccc(Oc3ncccc3-c3nn[nH]n3)cc2)ccc(C(C)=O)c1O	87	310	330	–	–	–	–	–	–	–
CCCc1c(OCc2ccc(Oc3ccc(C(=O)O)cn3)cc2)ccc(C(C)=O)c1O	96	1430	132	–	–	–	–	–	–	–
CCCc1c(OCc2cccc(Oc3ncccc3-c3nn[nH]n3)c2)ccc(C(C)=O)c1O	85	227	390	–	–	–	–	–	–	–
CCCc1c(OCc2ccc(Oc3cc(-c4nn[nH]n4)ccn3)cc2)ccc(C(C)=O)c1O	88 to 89	470	200	–	–	–	–	–	–	–
CC(=O)c1ccc(OCc2ccc(Oc3cccc(-c4nn[nH]n4)c3)cc2)c(C)c1O	85	293 to 336	1430	430	42	88	0.1	0.73	3.08	Dose-dependent effect
